The source of these data is US8936941B2, “Compositions useful for cancer detection and treatment, a cancer stem cell model, and methods of production and use thereof” (priority 2008, dated 2015).

One test deals with HCT116 tumor xenografts. Briefly: HCT116 tumor xenograft model in athymic nude mice, intratumoral treatment. In kind it is in vivo. To be noted: HCT 116-induced tumor xenograft, via induction of apoptosis. The text has this:
Real-time reverse transcription-PCR analyses. Total RNA isolated either from cells or from human colon cancer cell tumor xenograft samples was subjected to reverse transcription with Superscript™ II RNase H—Reverse Transcriptase and random hexanucleotide primers (Invitrogen, Carlsbad, Calif.). The cDNA was subsequently used to perform Real-time PCR by SYBR chemistry (SYBR® Green I; Molecular Probes) for specific transcripts using gene specific primers and Jumpstart Taq DNA polymerase (Sigma-Aldrich, St. Louis, Mo.). […] The changes in mRNA were expressed as fold change relative to control with ±SEM value.
miRNA analysis. Total miRNA was isolated using mirVana™ miRNA isolation kit (Ambion Inc.). Total miRNA isolated either from cells or from human colon cancer cell tumor xenograft samples were subjected to reverse transcription with Superscript™ II RNase H—Reverse Transcriptase and random hexanucleotide primers (Invitrogen, Carlsbad, Calif.). The cDNA was subsequently used to perform Real-time PCR by SYBR chemistry (SYBR® Green I; Molecular Probes) for pri-let-7a transcript using specific primers and Jumpstart Taq DNA polymerase (Sigma-Aldrich, St. Louis, Mo.). […] The changes in pri-miRNA were expressed as fold change relative to control with ±SEM value. Primers used are: […]
Western Blot analysis. HCT116 and SW480 cells were cultured in a 6 well plates to 40% confluency and were transfected with si-DCAMKL-1 or si-Scr for 72 h. Cells or the tumor xenograft samples were lysed and the concentration of protein was determined by BCA protein assay kit (Pierce Biotechnology Inc., Rockford, Ill.). […] The membrane was blocked in 5% non-fat dry milk for 1 h and probed overnight with a rabbit anti-DCAMKL-1 antibody (Abcam Inc., Cambridge, Mass.) or with rabbit anti-c-Myc antibody (Santa Cruz). Subsequently, the membrane was incubated with anti-rabbit or anti-goat IgG horseradish peroxidase-conjugated antibodies (Amersham-Pharmacia) for 1 h at room temperature. The 82 kDa DCAMKL-1 and 49 kDa c-Myc proteins were detected using ECL™ Western Blotting detection reagents (Amersham-Pharmacia). Actin (43 kDa), used as loading control was identified using a goat polyclonal IgG (Santa Cruz Biotechnology Inc., Santa Cruz, Calif.).
Immunohistochemistry. Heat Induced Epitope Retrieval was performed on 4 μm formalin-fixed paraffin-embedded sections utilizing a pressurized Decloaking Chamber (Biocare Medical) in citrate buffer (pH 6.0) at 99° C. for 18 min. (a) Brightfield: Slides were incubated in 3% hydrogen peroxide, then normal serum and BSA at room temperature for 20 min. After incubation with primary antibody [DCAMKL-1 C-terminal (Abcam), anti-c-Myc (Santa Cruz Biotechnologies), L-FABP (Santa Cruz Biotechnologies)], the slides were incubated in peroxidase-conjugated EnVision™+polymer detection kit (DAKO). Slides were developed with Diaminobenzidine (Sigma). (b) Fluorescence: Slides were first incubated in Image-iT FX signal enhancer (Invitrogen), followed by normal serum and BSA at room temperature for 20 min.
Xenograft tumor model. (a) Liposomal preparation: siRNA was administered into the xenografts after incorporation into 1,2-Dioleoyl-sn-Glycero-3-Phosphocholine (DOPC) (Avanti Polar Lipids, Alabaster, Ala.). DOPC and siRNA were mixed in the presence of excess tertiary butanol at a ratio of 1:10 (w/w) (siRNA/DOPC). Tween 20 (Sigma-Aldrich) was added to the mixture at a ratio of 1:19 Tween 20:siRNA/DOPC. The mixture was vortexed and frozen in an acetone/dry ice bath and lyophilized. Before administration, the siRNA preparation was reconstituted in 0.9% sterile saline and injected at a dose of 50 μl (5 μM) per injection. (b) Tumor therapy: Female athymic nude mice (NCr-nu) were purchased from the National Cancer Institute-Frederick Cancer Research and Development Center (Frederick, Md.) and housed in specific pathogen-free conditions.

For test [1], the system named is PICSCs. The test can be described thus: Growth and survival of PICSCs after drug treatment. In kind it is cell-based, mouse. Here is the method:
The PICSCs cells were treated with 100 μM drug (suprapharmacological dose) for 48 hours, and their growth and survival were evaluated. […] Moreover, the in vitro testing strategies allows for a mechanistic study of such compounds.

The test system of another test is PICSC tumor xenografts. Briefly: PICSC generated isograft tumor growth in mice. In kind it is in vivo. Conditions: mouse, in vivo. The method, then: To determine whether targeted DCAMKL-1 downregulation and/or Notch inhibition affected […] generated isograft tumor growth, mice were treated with siRNA to DCAMKL-1 or the Notch inhibitor DAPT. After the tumors were allowed to develop (15 days), siRNA was injected a total of 5 times at an interval of 3 days as described earlier.

Test [2] relates to PICSCs. The test can be described thus: LIVE/DEAD Viability/Cytotoxicity Assay on PICSCs. In kind it is cell-based, mouse. Conditions: 48 hours, single agent. The method, then:
This Example is directed to stem cell assays utilizing PICSCs generated in accordance with the presently disclosed and claimed inventive concept(s). The PICSCs were generated as described herein above (i.e., transformation of NIH-3T3 cells with RBM3 gene, followed by transplantation into a nude mouse, then sorting of cells obtained from generated tumors utilizing DCAMKL-1).
The PICSCs were exposed to various compounds/anti-cancer agents, and cell viability assays were then performed using the LIVE/DEAD® Viability/Cytotoxicity Assay from Molecular Probes/Invitrogen (Eugene, Oreg.). The LIVE/DEAD® Viability/Cytotoxicity Assay is an assay that provides a two-color fluorescence cell viability that is based on the simultaneous determination of both live and dead cells.
Briefly, PICSCs cells were grown in a 96 well microtitre plate ([…], Newton, N.C.) to about 40% confluency and treated with anti-cancer agents/compounds for 48 hours. Subsequently, chromogenic substrates Calcein AM and Ethidium homodimer-1 (EthD-1) was added to the cells. Calcein AM is well retained within the live cells, producing uniform green fluorescence in live cells (measured at 515 nM). EthD-1 enters cells with damaged membranes and undergoes an enhancement of fluorescence upon binding to nucleic acids, thereby producing a bright red fluorescence in dead cells (measured at 617 nM). The fluorescence measurement was carried out using a microtitre plate reader (Synergy HT, BIO-TEK, Vinooski, Vt.).
In FIGS. 70-84, the PICSCs were treated with increasing concentrations of various compounds or combinations of compounds for 48 hours, and the data presented therein is represented as a % Dead/Live cells ratio following said treatment. […] Values in each figure are given as average±Standard Error Mean, and asterisks denote statistically significant differences (*p<0.01) compared with control.

The subject of test [3] is Pdx1-Cre; LSL-KRAS^G12D; p53^lox/+ mouse model of pancreatic neoplasia. To be noted: inhibition of Notch signaling; cited from earlier work.
The next test has as its system HCV subgenomic replicon. The test can be described thus: HCV replication in GS5 cells (Huh7.5 with HCV subgenomic replicon). To be noted: disruption of microtubules. In kind it is cell-based, hepatitis C virus. Here is the method: FIG. 61 illustrates that DCAMKL-1 is required for the HCV replication. A. siRNA against DCAMKL-1 (Si-DCAMKL1, 50 nM and 100 nM) or scrambled siRNA (SCR, 100 nM) were transfected into GS5 cells. Total RNAs were extracted and subjected to real-time quantitative PCR. The levels of HCV and DCAMKL-1 RNAs were considered arbitrary as one unit in untransfected GS5 cells (Cont). Actin mRNA in each sample was used as internal control for PCR. B. Western blot analysis of siRNAs tranfected and untransfected samples as indicated.
Induction of putative stem cell/pluripotency factors by HCV: Normal adult hepatocytes are fully differentiated cells and lack expression of pluripotency factors. However, these cells can be induced to proliferate rapidly after partial hepatectomy and can also be reprogrammed into stem-like cells by forced expression of a cocktail of transcription factors. Thus, the impact of HCV on expression pattern of stem/progenitor cell markers was investigated in GS5 cells, which are derived from hepatoma cell line (Huh7.5) and support constitutive replication of a subgenomic HCV replicon under G418 selection. The replicon expresses HCV nonstructural proteins NS3 through NS5B of the HCV-1a strain and green florescent protein (GFP)-NS5A chimera. Total lysates from parent Huh7.5 and GS5 cells were subjected to Western blot analysis (FIG. 59).
Putative intestinal stem cell marker DCAMKL1 is required for the HCV replication: The eccentric, punctate staining of HCV replication complexes consisting of most of the nonstructural proteins and cellular factors has been a puzzling question. It is known that these replication complexes associate with microtubules in order to replicate the HCV RNA. The DCAMKL1 protein, which binds and polymerizes tubulin into microtubule filaments, is considered as a putative marker for quiescent stem cells in the intestine, and its expression is increased in cancer stem cells. During confocal microscopy, most DCAMKL1 localization was consistently observed in the area containing replication complexes (indicated by NS5A-GFP) and high concentration of microtubules (FIG. 60). The perinuclear co-localization of DCAMKL1 with the NS5A-GFP (indicated by yellow stain) was also observed.
For orientation: A replicon is a self-replicating genome or part of one, used to study replication in cells.

Entries after “also recorded” stand apart in the source; their conditions may differ.

`O=C1C(=Cc2ccccc2F)CNCC1=Cc1ccccc1F` [EF24, 3,5-bis(2-fluorobenzylidene)piperidin-4-one]: the tumor xenograft growth result in the test with HCT116 tumor xenografts is “significantly inhibited”. For the same molecule, the “neurite formation, cell growth and cell death of PICSCs” value in the test with PICSCs [1] (1 μM) was “inhibited neurite formation, suppressed cell growth and induced cell death”. In the test with PICSC tumor xenografts, the anti-CSC growth properties result is listed as “potent anti-CSC growth properties”. In addition, in the test on PICSCs [2], the “PICSC cell death (% Dead/Live cells ratio)” value is “increasing levels of PICSC cell death”.
As to `OO` [hydrogen peroxide], the “PICSC cell death (% Dead/Live cells ratio)” value in the test on PICSCs [2] is recorded as “complete cell death”.
Turning to `COc1cc(/C=C/C(=O)CC(=O)/C=C/c2ccc(O)c(OC)c2)ccc1O` [curcumin], in the test with PICSCs [1] (30 μM), the “neurite formation, cell growth and cell death of PICSCs” value is “inhibited neurite formation, suppressed cell growth and induced cell death”.
Take `CCc1c2c(nc3ccc(OC(=O)N4CCC(N5CCCCC5)CC4)cc13)-c1cc3c(c(=O)n1C2)COC(=O)[C@]3(O)CC` [CPT-11, Irinotecan]: the “growth and survival of PICSCs” value with PICSCs [1] (100 μM drug, 48 hours) is given as “no significant effect”. The “PICSC cell death (% Dead/Live cells ratio)” value with PICSCs [2] was “no cell death”.
In the case of `O=S1(=O)N[C@@]2(CN1CC(F)(F)F)[C@@H]1CC[C@H]2Cc2ccc(/C=C/CN3CCC(C(F)(F)F)CC3)cc2C1` [MRK-003], the tumor development entry in test [3] is listed as “completely inhibited tumor development; also recorded: completely blocked tumor development”.
Take `C[C@H](NC(=O)Cc1cc(F)cc(F)c1)C(=O)N[C@H](C(=O)OC(C)(C)C)c1ccccc1` [DAPT]: the anti-CSC growth properties entry with PICSC tumor xenografts is on record as “potent anti-CSC growth properties”. The “PICSC cell death (% Dead/Live cells ratio)” value in the test on PICSCs [2] is “increasing levels of PICSC cell death”.
With `Nc1ccn([C@@H]2O[C@H](CO)[C@@H](O)C2(F)F)c(=O)n1` [Gemcitabine], the “PICSC cell death (% Dead/Live cells ratio)” value in the test with PICSCs [2] is recorded as “significant increase in PICSC cell death”.
Turning to `N.N.[Cl][Pt][Cl]` [Cisplatin], the “PICSC cell death (% Dead/Live cells ratio)” value with PICSCs [2] is recorded as “increasing levels of PICSC cell death”.
In the case of `CC[C@]1(O)C[C@@H]2CN(CCc3c([nH]c4ccccc34)[C@@](C(=O)OC)(c3cc4c(cc3OC)N(C)[C@H]3[C@@](O)(C(=O)OC)[C@H](OC(C)=O)[C@]5(CC)C=CCN6CC[C@]43[C@@H]65)C2)C1` [vinblastin, reference compound], the HCV replication entry with HCV subgenomic replicon is reported as “inhibition”.
